Article PMC9820568, “Near-Infrared Imaging of Steroid Hormone Activities Using Bright BRET Templates” (International Journal of Molecular Sciences, 2022)

Experiments:
NLuc (NanoLuc) [1] = molecular target: T1, NLuc (NanoLuc) (Oplophorus gracilirostris, UniProt Q9GV45, A31E/Q38R/Q45L/L54V/A60N/K70R/V71I/A81I/F95D/L99Q/M102K/I117V/P142E/Q151K/Y165I/N193R); test: bioluminescence imaging and spectra, COS-7; assay type: cell-based; details: live cells and lysate; […] substrate in PBS
T1 construct: engineered NanoLuc variant of the 19 kDa subunit, expressed from pcDNA3.1(+) in COS-7, mostly cytosolic

[2] = molecular target: T2, LSSmNep-GR5GS-NLuc (GR HLBD) (Homo sapiens, UniProt P04150); test: NIR-BRET, COS-7 stably expressing single-chain probe; assay type: cell-based; details: live cells stimulated […] h; DBlueC substrate; […] nm filter
T2 construct: gene NR3C1; stably expressed in COS-7
T2 sequence (P04150 486-777): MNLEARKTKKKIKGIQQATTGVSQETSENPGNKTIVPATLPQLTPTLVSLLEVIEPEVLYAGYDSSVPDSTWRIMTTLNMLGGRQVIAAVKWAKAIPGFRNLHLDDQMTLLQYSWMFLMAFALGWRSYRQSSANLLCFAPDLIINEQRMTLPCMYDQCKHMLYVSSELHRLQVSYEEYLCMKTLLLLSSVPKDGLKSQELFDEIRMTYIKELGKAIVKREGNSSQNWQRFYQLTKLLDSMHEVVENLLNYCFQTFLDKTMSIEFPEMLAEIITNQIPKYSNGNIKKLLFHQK

NLuc (NanoLuc) [3] = molecular target: T1, NLuc (NanoLuc); test: bioluminescence spectra, COS-7 lysate; assay type: biochemical; details: substrate solution […] in PBS

T1 sequence (Q9GV45 28-196 with the stated changes): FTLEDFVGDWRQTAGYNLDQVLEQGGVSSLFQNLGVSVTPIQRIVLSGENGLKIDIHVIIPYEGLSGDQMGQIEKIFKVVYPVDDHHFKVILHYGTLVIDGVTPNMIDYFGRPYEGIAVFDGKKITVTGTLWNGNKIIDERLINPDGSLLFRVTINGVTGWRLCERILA

Oc1c(Cc2ccccc2)nc2c(Cc3ccccc3)nc(-c3ccccc3)cn12 [DBlueC, DeepBlueC]
bioluminescence imaging and spectra, COS-7 (NLuc (NanoLuc) [1]): DBlueC and nCTZ were exclusively bright with NLuc and ALuc47, respectively

C[C@]12CCC(=O)C=C1CC[C@@H]1[C@@H]2[C@@H](O)C[C@@]2(C)[C@H]1CC[C@]2(O)C(=O)CO [cortisol]
fold NIR-BRET intensity at 10^-6 M [2]: 1.3 fold

Oc1ccc(Cc2nc3c(Cc4ccccc4)nc(-c4ccc(O)cc4)cn3c2O)cc1 [nCTZ, native coelenterazine]
bioluminescence spectra, COS-7 lysate (NLuc (NanoLuc) [3]): The nCTZ was commonly bright among all the tested marine luciferases
